Drawing on BindingDB's records for doi:10.1021/acs.jmedchem.8b00875 (2019), this text covers Ki and EC50 for two compounds.

Assay [1] has as its target T1, 5-hydroxytryptamine receptor 2C (Homo sapiens, UniProt P28335).
T1 sequence (P28335 whole entry): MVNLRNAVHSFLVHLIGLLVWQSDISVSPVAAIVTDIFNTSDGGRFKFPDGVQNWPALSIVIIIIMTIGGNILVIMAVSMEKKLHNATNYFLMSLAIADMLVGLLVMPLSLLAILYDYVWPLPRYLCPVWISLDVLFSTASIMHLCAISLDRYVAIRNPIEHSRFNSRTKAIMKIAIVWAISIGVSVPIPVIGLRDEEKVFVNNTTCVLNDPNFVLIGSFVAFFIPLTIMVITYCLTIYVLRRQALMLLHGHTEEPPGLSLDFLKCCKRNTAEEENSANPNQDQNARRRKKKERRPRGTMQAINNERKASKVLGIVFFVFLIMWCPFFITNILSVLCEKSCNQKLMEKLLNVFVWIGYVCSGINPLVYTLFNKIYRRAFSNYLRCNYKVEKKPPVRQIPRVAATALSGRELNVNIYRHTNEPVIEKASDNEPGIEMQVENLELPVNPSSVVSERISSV
Nature of the assay: Positive allosteric modulation of 5-HT2C receptor (unknown origin) assessed as increase in 5-HT-induced displacement of [3H]mesulergine by measuring 5-HT Ki at 20 uM (Rvb = 159 nM).

Assay [2] deals with T2, Muscarinic acetylcholine receptor M1 (Homo sapiens, UniProt P11229).
T2 sequence (P11229 whole entry): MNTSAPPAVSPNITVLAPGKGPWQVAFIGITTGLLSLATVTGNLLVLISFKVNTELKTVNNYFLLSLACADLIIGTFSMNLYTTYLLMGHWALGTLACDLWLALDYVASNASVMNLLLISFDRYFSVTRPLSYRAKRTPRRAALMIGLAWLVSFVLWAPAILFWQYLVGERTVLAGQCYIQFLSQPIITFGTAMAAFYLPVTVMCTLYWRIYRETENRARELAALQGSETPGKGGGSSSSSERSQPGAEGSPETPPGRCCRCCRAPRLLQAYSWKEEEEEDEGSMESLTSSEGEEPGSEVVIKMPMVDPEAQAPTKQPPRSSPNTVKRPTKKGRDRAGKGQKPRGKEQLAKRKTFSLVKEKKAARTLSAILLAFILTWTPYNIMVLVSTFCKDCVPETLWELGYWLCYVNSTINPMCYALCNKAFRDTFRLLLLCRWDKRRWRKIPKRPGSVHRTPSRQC
The assay can be described thus: Positive allosteric modulation of M1 AchR (unknown origin).

With `CCCCCCCCCCC[C@@H]1CCN[C@H](C(=O)N[C@@H]([C@H]2O[C@H](SC)[C@H](O)[C@@H](O)[C@H]2O)[C@H](C)Cl)C1`, in assay [1], the Ki (usually the dissociation constant of the complex between target and ligand, obtained from inhibition or displacement) was found to be 6.4 nM.

For `Cn1cc(-c2ccc(Cn3cc(C(=O)N[C@H]4CCCC[C@@H]4O)c4c(F)cc(F)cc43)cn2)cn1`, a half-maximal response in assay [2] (EC50) required 210 nM.
